One data set deals with Pseudomonas aeruginosa. Briefly: Antibacterial activity against Pseudomonas aeruginosa ATCC 27853 after 12 hrs by serial plate dilution method. The format is functional. Particulars: ATCC 27853, 12 h.
In another data set the test system is Escherichia coli. The experiment in a line: Antibacterial activity against Escherichia coli ATCC 25922 after 12 hrs by serial plate dilution method. The class given is functional. Particulars: ATCC 25922, 12 h.
Another data set has as its system Staphylococcus aureus. The experiment in a line: Antibacterial activity against Staphylococcus aureus ATCC 25923 after 12 hrs by serial plate dilution method. The class given is functional. Particulars: ATCC 25923, 12 h.
The nature of data set [1]: Cytotoxicity against mouse NIH/3T3 cells assessed as cell growth inhibition at 50 ug/mL after 48 hrs by MTT assay. The class given is cell-based, NIH3T3. Particulars: read-out: GI. A general note: Tetrazolium assays rely on reduction of a dye to a coloured formazan, in cell work by metabolically active cells.
Data set [2] concerns Mycobacterium tuberculosis. The experiment in a line: Antimycobacterial activity against Mycobacterium tuberculosis H37Rv after 5 days by fluorescence analysis. The format is functional. Particulars: 120 h.

Converted amounts (≈) assume the structure as drawn.

The MIC is the smallest concentration in the dilution series that meets the test's criterion for growth inhibition. A high value points to weaker potency. In the case of `Cc1nn2c(/C=N/Nc3nc(-c4ccc(F)cc4)cs3)c(-c3ccc(Cl)cc3)nc2s1`, the MIC in the data set with Pseudomonas aeruginosa came out at 50 µg/mL (≈ 107 µM); with Escherichia coli, 25 µg/mL (≈ 53.3 µM); against Staphylococcus aureus, 25 µg/mL (≈ 53.3 µM).
Consider `Cc1ccc(-c2nc3sc(C)nn3c2/C=N/Nc2nc(-c3ccc(Cl)cc3)cs2)cc1`, for which the MIC against Pseudomonas aeruginosa, in the data set on Escherichia coli and against Staphylococcus aureus was 50 µg/mL (≈ 108 µM) throughout.
`Cc1ccc(-c2csc(N/N=C/c3c(-c4ccc(C)cc4)nc4sc(C)nn34)n2)cc1`: the MIC was determined as 25 µg/mL (≈ 56.2 µM) against Pseudomonas aeruginosa, 50 µg/mL (≈ 112 µM) against Escherichia coli and 50 µg/mL (≈ 112 µM) against Staphylococcus aureus.
On to `COc1ccc(-c2csc(N/N=C/c3c(-c4ccc(OC)cc4)nc4sc(C(F)(F)F)nn34)n2)cc1`, for which the MIC against Pseudomonas aeruginosa stood at 25 µg/mL (≈ 47.1 µM); against Escherichia coli it was 12.5 µg/mL (≈ 23.6 µM); against Staphylococcus aureus, 25 µg/mL (≈ 47.1 µM).
Regarding `COc1ccc(-c2csc(N/N=C/c3c(-c4ccc(C)cc4)nc4sc(C)nn34)n2)cc1`, the results for the MIC against Pseudomonas aeruginosa, with Escherichia coli and with Staphylococcus aureus were 25 µg/mL (≈ 54.3 µM), 50 µg/mL (≈ 109 µM) and 50 µg/mL (≈ 109 µM), respectively.
Consider `Fc1ccc(-c2csc(N/N=C/c3c(-c4ccc(Cl)cc4)nc4sc(C(F)(F)F)nn34)n2)cc1`, for which the MIC stood at 6.25 µg/mL (≈ 12 µM) against Pseudomonas aeruginosa, 6.25 µg/mL (≈ 12 µM) with Escherichia coli and 12.5 µg/mL (≈ 23.9 µM) in the data set on Staphylococcus aureus. Besides, the inhibition at 48 h, 50 ug/mL in data set [1] stood at 15.9%.
With `Cc1ccc(-c2csc(N/N=C/c3c(-c4ccc(Cl)cc4)nc4sc(C)nn34)n2)cc1`, the MIC in the data set with Pseudomonas aeruginosa, with Escherichia coli and in the data set on Staphylococcus aureus was 50 µg/mL (≈ 108 µM) each time.
As to `COc1ccc(-c2nc3sc(C(F)(F)F)nn3c2/C=N/Nc2nc(-c3ccc(C)cc3)cs2)cc1`, the MIC stood at 25 µg/mL (≈ 48.6 µM) in the data set with Pseudomonas aeruginosa, 25 µg/mL (≈ 48.6 µM) against Escherichia coli and 50 µg/mL (≈ 97.2 µM) against Staphylococcus aureus. Moreover, the inhibition at 48 h, 50 ug/mL in data set [1] turned out to be 18.4%.
On to `COc1ccc(-c2nc3sc(C(F)(F)F)nn3c2/C=N/Nc2nc(-c3ccc(F)cc3)cs2)cc1`, for which the MIC turned out to be 25 µg/mL (≈ 48.2 µM) in the data set with Pseudomonas aeruginosa, 50 µg/mL (≈ 96.4 µM) against Escherichia coli and 50 µg/mL (≈ 96.4 µM) against Staphylococcus aureus. In addition, the inhibition at 48 h, 50 ug/mL in data set [1] is 18.9%.
Regarding `Cc1ccc(-c2nc3sc(C)nn3c2/C=N/Nc2nc(-c3ccc(F)cc3)cs2)cc1`, the MIC against Pseudomonas aeruginosa, against Escherichia coli and against Staphylococcus aureus was 50 µg/mL (≈ 111 µM) in each case. The inhibition at 48 h, 50 ug/mL in data set [1] worked out at 22.3%.
`COc1ccc(-c2csc(N/N=C/c3ccc4c(c3)c3ccccc3n4C)n2)cc1OC` gave an MIC in data set [2] of 21 µM (≈ 9.29 µg/mL).
As for `COc1ccc(-c2nc3sc(C)nn3c2/C=N/Nc2nc(-c3ccc([N+](=O)[O-])cc3)cs2)cc1`, the MIC in the data set on Pseudomonas aeruginosa, against Escherichia coli and in the data set with Staphylococcus aureus was 25 µg/mL (≈ 50.9 µM) in each case.
As for `COc1ccc(-c2nc3sc(C)nn3c2/C=N/Nc2nc(-c3ccc(C)cc3)cs2)cc1`, the MIC against Pseudomonas aeruginosa, with Escherichia coli and against Staphylococcus aureus was 50 µg/mL (≈ 109 µM) in each case.
`Cc1ccc(-c2nc3sc(C)nn3c2/C=N/Nc2nc(-c3ccc([N+](=O)[O-])cc3)cs2)cc1`: the MIC with Pseudomonas aeruginosa was 12.5 µg/mL (≈ 26.3 µM); against Escherichia coli it was 6.25 µg/mL (≈ 13.1 µM); with Staphylococcus aureus it was 12.5 µg/mL (≈ 26.3 µM). The inhibition at 48 h, 50 ug/mL in data set [1] is 23.3%.
Regarding `O=[N+]([O-])c1ccc(-c2csc(N/N=C/c3c(-c4ccc(Cl)cc4)nc4sc(C(F)(F)F)nn34)n2)cc1`, the MIC in the data set with Pseudomonas aeruginosa was found to be 25 µg/mL (≈ 45.5 µM); against Escherichia coli, 12.5 µg/mL (≈ 22.7 µM); against Staphylococcus aureus, 12.5 µg/mL (≈ 22.7 µM).
For `COc1ccc(-c2csc(N/N=C/c3c(-c4ccc(OC)cc4)nc4sc(C)nn34)n2)cc1`, the MIC with Pseudomonas aeruginosa amounted to 50 µg/mL (≈ 105 µM); against Escherichia coli, 12.5 µg/mL (≈ 26.2 µM); against Staphylococcus aureus it was 50 µg/mL (≈ 105 µM).
As for `COc1ccc(-c2nc3sc(C)nn3c2/C=N/Nc2nc(-c3ccc(F)cc3)cs2)cc1`, the MIC against Pseudomonas aeruginosa, against Escherichia coli and in the data set with Staphylococcus aureus was 50 µg/mL (≈ 108 µM) throughout.
In the case of `COc1ccc(-c2csc(N/N=C/c3c(-c4ccc(Cl)cc4)nc4sc(C)nn34)n2)cc1`, the minimum inhibitory concentration (MIC) against Pseudomonas aeruginosa turned out to be 50 µg/mL (≈ 104 µM); with Escherichia coli, 25 µg/mL (≈ 52 µM); in the data set with Staphylococcus aureus, 50 µg/mL (≈ 104 µM). The inhibition at 48 h, 50 ug/mL in data set [1] was 20.8%.
Consider `FC(F)(F)c1nn2c(/C=N/Nc3nc(-c4ccc(Cl)cc4)cs3)c(-c3ccc(Cl)cc3)nc2s1`, for which the MIC was 50 µg/mL (≈ 92.7 µM) against Pseudomonas aeruginosa, 12.5 µg/mL (≈ 23.2 µM) against Escherichia coli and 12.5 µg/mL (≈ 23.2 µM) against Staphylococcus aureus.
In the case of `COc1ccc(-c2nc3sc(C(F)(F)F)nn3c2/C=N/Nc2nc(-c3ccc(Cl)cc3)cs2)cc1`, the MIC in the data set on Pseudomonas aeruginosa, against Escherichia coli and against Staphylococcus aureus was 50 µg/mL (≈ 93.5 µM) each time.
Regarding `Cc1nn2c(/C=N/Nc3nc(-c4ccc(Cl)cc4)cs3)c(-c3ccc(Cl)cc3)nc2s1`, the MIC against Pseudomonas aeruginosa, against Escherichia coli and against Staphylococcus aureus was 25 µg/mL (≈ 51.5 µM) throughout.
For `COc1ccc(-c2csc(N/N=C/c3c(-c4ccc(Cl)cc4)nc4sc(C(F)(F)F)nn34)n2)cc1`, the MIC was found to be 25 µg/mL (≈ 46.7 µM) in the data set on Pseudomonas aeruginosa, 12.5 µg/mL (≈ 23.4 µM) with Escherichia coli and 25 µg/mL (≈ 46.7 µM) in the data set with Staphylococcus aureus. Further, in data set [1], the inhibition at 48 h, 50 ug/mL was 14.7%.
Consider `Cc1ccc(-c2csc(N/N=C/c3c(-c4ccc(Cl)cc4)nc4sc(C(F)(F)F)nn34)n2)cc1`, for which the MIC against Pseudomonas aeruginosa, with Escherichia coli and against Staphylococcus aureus was 25 µg/mL (≈ 48.2 µM) each time. The inhibition at 48 h, 50 ug/mL in data set [1] stood at 19.6%.
As for `COc1ccc(-c2nc3sc(C)nn3c2/C=N/Nc2nc(-c3ccc(Cl)cc3)cs2)cc1`, the MIC in the data set on Pseudomonas aeruginosa is 12.5 µg/mL (≈ 26 µM); against Escherichia coli, 6.25 µg/mL (≈ 13 µM); in the data set on Staphylococcus aureus, 12.5 µg/mL (≈ 26 µM). Moreover, in data set [1], the inhibition at 48 h, 50 ug/mL worked out at 12.7%.

The values above are taken from ChEMBL document CHEMBL3779863, “Ionic liquid-promoted one-pot synthesis of thiazoleimidazo[2,1-b][1,3,4]thiadiazole hybrids and their antitubercular activity” (Medchemcomm, 2016).
